What was measured:
[1] = Stability in mouse plasma (UPLC-MS/MS); format: in vitro ADME; settings: 2.5 μM
Protocol: (§1) The compounds are placed in mouse plasma and mouse microsomes, and their stability is evaluated by monitoring by UPLC-MS/MS.
(§2) For plasma stability, the concentration tested is 2.5 μM and the incubation volume is 50 μL. The incubation times are 0, 15, 30, 45, 60 and 120 minutes. Protein precipitation is then performed on the samples, and then the latter are analyzed by UPLC-MS/MS. The percentage of the compound remaining as well as its elimination half-life are thus obtained. For the metabolic stability in microsomes, the concentration of test compound is 2.5 μM, and the incubation volume is 400 μL. The concentration of mouse microsomes is 0.5 mg/mL. The incubation times are 0, 15, 30 and 45 minutes. The cofactor used is NADPH. Two negative controls are carried out, one without microsomes and without cofactor at 0 and 45 minutes, and one without cofactor and with microsome at 0 and 45 minutes. A positive control is carried out in the presence of diphenhydramine. The samples are analyzed by LC-MS/MS. The intrinsic clearance and the half-life are thus obtained.
(§3) LC-MS/MS is carried out on a UPLC Acquity™ coupled to a XEVO TQ-S(WATERS).
(§4) Liquid chromatography is carried out on an Acquity UPLC column BEH 1.7 μm, 2.1×50 mm with a gradient of 4 minutes water+0.1% […]/acetonitrile 95:5 to 100:0. The column temperature is +50° C. and the temperature of the injector is +4° C. Acquisition in mass spectrometry is performed by MRM (Multiple Reaction Monitoring), with positive electrospray ionization.

lung cancer cells A549 = test: Cytotoxicity on A549, CellTiter Glo viability after 72 h; format: cell-based; settings: Homo sapiens, A549, 72 h
Protocol: (§5) The lines U87-MG and A549 were obtained from the American Type Culture Collection (Rockville, MD, USA) and were cultured according to the supplier's instructions. The human glioblastoma cells U87-MG were cultured in Dulbecco […] (DMEM) containing 10% of FCS and 1% of L-glutamine. The lung cancer cells A549 were cultured in RPMI1640 medium containing 10% of FCS and 1% of L-glutamine. The cell lines were maintained at 37° C. in a humidified atmosphere containing 5% CO2. The products were tested at 10 concentrations in triplicate and the cellular viability was evaluated after 72 h of treatment using the CellTiter Glo assay (Promega), which allows the number of live cells to be measured by luminescence (quantification of ATP).
(§6) Thus, the cells were seeded in 96-well plates (2.5×10^3 cells/well) each containing 90 μL of growth medium. After culture for 24 hours, the wells were supplemented with 10 μL of medium containing ten decreasing concentrations of the test compound dissolved in DMSO (less than 0.1% in each preparation). After incubation for 72 h, 100 μL of Cell Titer GLo reagent was added in the space of 15 min before quantifying the luminescence emitted using a microplate reader. The dose-response curve was analyzed using Graph Prism software and the activity of the molecules is expressed in the form of IC50.

[2] = test system: human glioblastoma cells U87-MG; test: Cytotoxicity on U87-MG, CellTiter Glo viability after 72 h; format: cell-based; settings: U-87 MG
Protocol: as §5, §6

[3] = biological target: ORD domain (OSBP-Related Domain) of the protein OSBP (Homo sapiens (Human), UniProt P22059); test: Inhibition of DHE transport between liposomes catalyzed by the purified ORD domain of OSBP (FRET, robotized assay); format: biochemical; settings: purified ORD domain 200 nM, liposomes 130 μM, 37° C., compound 50 nM to 3 μM, triplicate; read-out: Affinity for the target OSBP (Ki)
ORD domain (OSBP-Related Domain) of the protein OSBP, sequence (P22059 401-807): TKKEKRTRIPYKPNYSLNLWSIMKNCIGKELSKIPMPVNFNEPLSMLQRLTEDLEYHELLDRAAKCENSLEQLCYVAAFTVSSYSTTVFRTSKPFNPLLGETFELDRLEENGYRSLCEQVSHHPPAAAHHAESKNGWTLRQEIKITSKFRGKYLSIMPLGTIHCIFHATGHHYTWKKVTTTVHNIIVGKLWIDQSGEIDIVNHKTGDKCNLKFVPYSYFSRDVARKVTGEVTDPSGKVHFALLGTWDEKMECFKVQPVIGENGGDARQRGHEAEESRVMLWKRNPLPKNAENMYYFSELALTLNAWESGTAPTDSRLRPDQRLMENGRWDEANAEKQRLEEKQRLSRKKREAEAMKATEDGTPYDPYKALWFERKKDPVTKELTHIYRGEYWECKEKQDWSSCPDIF
Protocol: Measurement of the inhibitory activity on OSBP is carried out by a robotized assay in the ORD domain (OSBP-Related Domain, in English) purified of the protein OSBP. The measurements are carried out according to a protocol using two preparations of liposomes: • The donor liposomes (A) contain a fluorescent sterol (DHE (dehydroergosterol)); • The acceptor liposomes (B) contain a fluorescent lipid (dansyl PE (1,2-dioleoyl-sn-glycero-3-phosphoethanolamine-N-(5-dimethylamino-1-naphthalenesulfonyl) (ammonium salt)) whose excitation spectrum covers the emission spectrum of DHE.
Transport of DHE from liposomes A to liposomes B catalyzed by the ORD domain is accompanied by a FRET signal between DHE and Dansyl-PE. Based on this signal, the kinetics of transport can be measured in real time. This measurement of fluorescence is carried out on a microplate in a TECAN Infinite 1000 Pro instrument (temperature=37° C.). At the beginning, each measurement well contains liposomes B (130 μM), ORD domain (200 nM) and the test compound. At time t=5 min, liposomes A (130 μM) are added to start the exchange reaction. Each compound is tested in triplicate for final concentrations from 50 nM to 3 μM. The time constant (k) obtained for the kinetics in each case is then represented as a function of the concentration of the analog. From this representation, an inhibition constant is determined for each compound. The affinity constants Ki are classified as follows: • Very strong affinity Ki<10 nM • Good affinity Ki from 10 to 100 nM • Low affinity Ki from 100 to 2000 nM
The compounds, other than the prodrugs, having a Ki<100 nM are regarded as active on OSBP.

[4] = Metabolic stability in mouse hepatic microsomes (LC-MS/MS); format: in vitro ADME; settings: mouse microsomes 0.5 mg/mL, 2.5 μM, NADPH
Protocol: as §1, §2, §3, §4

With `CC1(C)[C@H](O)CC[C@@]2(C)Oc3c(c(O)cc4oc(-c5ccccc5)cc(=O)c34)C[C@H]12` (racemic) [Compound 3, (7aR*,9R*,11aR*)-6,9-dihydroxy-8,8,11a-trimethyl-3-phenyl-7a,8,9,10,11,11a-hexahydro-1H,7H-pyrano[2,3-c]xanthen-1-one] the “metabolic stability in mouse plasma at 120 minutes (percentage of compound remaining)” value [1] was 99%, the IC50 (lung cancer cells A549) was 3.4 µM and the IC50 [2] was 340 nM. The Ki [3] was less than 10 nM, the “clearance in microsomal medium (intrinsic clearance)” value (shortened to “clearance in microsomal medium”) [4] was 152 μL/min/mg of protein and the “metabolic stability in mouse microsomes” value [4] was 88%.
For `CC1(C)[C@@H](O)CC[C@]2(C)Oc3c(c(O)cc4oc(-c5ccccc5)cc(=O)c34)C[C@@H]12` [Compound 7, (7aS,9S,11aS)-6,9-dihydroxy-8,8,11a-trimethyl-3-phenyl-7a,8,9,10,11,11a-hexahydro-1H,7H-pyrano[2,3-c]xanthen-1-one], the IC50 [2] was 1890 nM and the Ki [3] was less than 10 nM.
With `COCOc1ccc(-c2oc3cc(OCOC)c4c(c3c(=O)c2OCOC)O[C@]2(C)CC[C@@H](O)C(C)(C)[C@H]2C4)cc1` [Compound 10, (7aR,9R,11aR)-9-hydroxy-2,6-bis(methoxymethoxy)-3-(4-(methoxymethoxy)phenyl). 8,8,11a-trimethyl-7a,8,9,10,11,11a-hexahydro-1H,7H-pyrano[2,3-c]xanthen-1-one] the “metabolic stability in mouse plasma at 120 minutes (percentage of compound remaining)” value [1] was 90%, the IC50 [2] was 4340 nM and the “clearance in microsomal medium” value [4] was 52 μL/min/mg of protein. For the same compound, the “metabolic stability in mouse microsomes” value [4] was 99%.
`CC1(C)[C@H](O)CC[C@@]2(C)Oc3c(c(O)cc4oc(-c5ccc(O)cc5)c(O)c(=O)c34)C[C@H]12` [Compound 11, (7aR,9R,11aR)-2,6,9-trihydroxy-3-(4-hydroxyphenyl)-8,8,11a-trimethyl-7a,8,9,10,11,11a-hexahydro-1H,7H-pyrano[2,3-c]xanthen-1-one] gave an IC50 (lung cancer cells A549) of 6.3 µM and an IC50 [2] of 2300 nM.
Work on `COCOc1cc2oc(-c3ccccc3)cc(=O)c2c2c1C[C@@H]1C(C)(C)[C@H](O)CC[C@@]1(C)O2` (racemic) [Compound 1, (7aR*9R*,11aR*)-9-hydroxy-6-(methoxymethoxy)-8,8,11a-trimethyl-3-phenyl-7a,8,9,10,11,11a-hexahydro-1H,7H-pyrano[2,3-c]xanthen-1-one] yielded an IC50 (lung cancer cells A549) of 5.08 µM, an IC50 [2] of 540 nM and a Ki [3] of less than 10 nM.
`COCOc1cc2oc(-c3ccccc3)cc(=O)c2c2c1C[C@@H]1C(C)(C)[C@H](OCOC)CC[C@@]1(C)O2` (racemic) [Compound 2, (7aR*,9R*,11aR*)-6,9-bis(methoxymethoxy)-8,8,11a-trimethyl-3-phenyl-7a,8,9,10,11,11a-hexahydro-1H,7H-pyrano[2,3-c]xanthen-1-one] gave an IC50 (lung cancer cells A549) greater than 10 µM, an IC50 [2] greater than 10000 nM and a Ki [3] of 100 to 2000 nM.
With `COCOc1cc2oc(-c3ccccc3)cc(=O)c2c2c1C[C@H]1C(C)(C)[C@@H](O)CC[C@]1(C)O2` [Compound 6, (7aS,9S,11aS)-9-hydroxy-6-(methoxymethoxy)-8,8,11a-trimethyl-3-phenyl-7a,8,9,10,11,11a-hexahydro-1H,7H-pyrano[2,3-c]xanthen-1-one] the IC50 (lung cancer cells A549) was greater than 10 µM, the IC50 [2] was 4310 nM and the Ki [3] was 100 to 2000 nM.
Work on `CC1(C)[C@H](O)CC[C@@]2(C)Oc3c(c(O)cc4oc(-c5ccccc5)cc(=O)c34)C[C@H]12` [Compound 5, (7aR,9R,11aR)-6,9-dihydroxy-8,8,11a-trimethyl-3-phenyl-7a,8,9,10,11,11a-hexahydro-1H,7H-pyrano[2,3-c]xanthen-1-one] yielded an IC50 (lung cancer cells A549) of 1.38 µM, an IC50 [2] of 280 nM and a Ki [3] of less than 10 nM.
`COCOc1cc2oc(-c3ccccc3)cc(=O)c2c2c1C[C@@H]1C(C)(C)[C@H](O)CC[C@@]1(C)O2` [Compound 4, (7aR,9R,11aR)-9-hydroxy-6-(methoxymethoxy)-8,8,11a-trimethyl-3-phenyl-7a,8,9,10,11,11a-hexahydro-1H,7H-pyrano[2,3-c]xanthen-1-one] showed an IC50 [2] of 440 nM and a Ki [3] of 10 to 100 nM.
For `CC1(C)[C@H](O)CC[C@@]2(C)Oc3c(c(O)cc4oc(-c5ccc(O)cc5)cc(=O)c34)C[C@H]12` [Compound 9, (7aR,9R,11aR)-6,9-dihydroxy-3-(4-hydroxyphenyl)-8,8,11a-trimethyl-7a,8,9,10,11,11a-hexahydro-1H,7H-pyrano[2,3-c]xanthen-1-one], the “metabolic stability in mouse plasma at 120 minutes (percentage of compound remaining)” value [1] was 100%, the IC50 [2] was 3780 nM and the “clearance in microsomal medium” value [4] was 26 μL/min/mg of protein. The “metabolic stability in mouse microsomes” value [4] was 100%.
In the case of `COCOc1ccc(-c2cc(=O)c3c4c(c(OCOC)cc3o2)C[C@@H]2C(C)(C)[C@H](O)CC[C@@]2(C)O4)cc1` [Compound 8, (7aR,9R,11aR)-9-hydroxy-6-(methoxymethoxy)-3-(4-(methoxymethoxy)phenyl)-8,8,11a-trimethyl-7a,8,9,10,11,11a-hexahydro-1H,7H-pyrano[2,3-c]xanthen-1-one], the IC50 [2] is reported as 160 nM and the Ki [3] is reported as 10 to 100 nM.

Source: patent publication US20240425515A1, “COMPOUND OF THE 7A,8,9,10,11,11A-HEXAHYDRO-1H,7H-PYRANO[2,3-C]XANTHENE TYPE, METHOD OF PREPARATION THEREOF, INTERMEDIATES THEREOF AND THERAPEUTIC APPLICATIONS THEREOF” (CENTRE NATIONAL DE LA RECHERCHE SCIENTIFIQUE, priority 2021, published 2024)
